Data: patent publication US9555137B2, “Uses of labeled HSP90 inhibitors” (Sloan-Kettering Institute for Cancer Research, priority 2011, dated 2017)
Where two headings read alike, the source gives them in different places.

Experiments:
AML cell lines = experiment: cell killing and apoptosis in AML cell lines (Acridine Orange/Ethidium Bromide); assay type: cell-based, human; conditions: cultured HEL cells
Procedure: To evaluate the sensitivity spectrum of AML cell lines to HSP90 inhibitors, and to investigate a possible relationship between their genetic background and induction of apoptosis by HSP90 therapy, we made use of a varied cell panel. […]
A ten-fold, in MOLM-13 and M0-91, and two-fold, in Kasumi-1 and SKNO-1, increase in caspase-3,7 activation was observed as early as 24 h. Essentially no live cells were detected for the M0-91 cell line after 48 h of HSP90 inhibitor treatment. […]
Cells were treated for 24, 48 or 72 h with vehicle (DMSO) or inhibitors as indicated. Following staining with Acridine Orange and Ethidium Bromide (1:1 mix of 100 µg/ml), cells were visualized with a fluorescent microscope (Zeiss Axiovert 40 CFL) and counted. Percentage of apoptotic cells was determined from 200-300 cells counted in each group. The percentage of apoptotic cells was calculated as: % Apoptotic cells=(total number of cells with apoptotic nuclei/total number of cells counted)×100.

oncogenic HSP90 [1] = experiment: PU-FITC binding in primary leukemia samples, blasts relative to normal lymphocytes (flow cytometry); assay type: cell-based, human; conditions: blast crisis CML (bcCML) cells
oncogenic HSP90 [2] = experiment: PU-FITC binding to EpCAM+ circulating tumor cells relative to leukocytes; assay type: cell-based, human; conditions: patient with HER2+ metastatic breast cancer
Procedure: FIG. 20. PU-H71-FITC2 accumulation in EpCAM+ Circulating Tumor Cells: PBMC's isolated from whole blood were pre-treated with PU-FITC or controls (PU-FITC9, DMSO, 1 μM/2×10^6 cells/ml, 4 hrs). Cells were then stained with CD45, CD14 and EpCAM antibodies. (A) Cells are gated to exclude dead cells. Viable cells are then gated to determine EpCAM+ vs CD45+ cells. Monocytes are excluded from the analysis by gating the CD45+ cells further as FSC vs. CD14. (B) Histogram plots showing the PU-FITC Median florescence intensity (MFI) of CD45+CD14− cells (blue) and EpCAM+ cells (Red). The drug accumulation in EpCAM+ cells is calculated as the ratio of MFI EpCAM+/MFI CD45+CD14− (circulating tumor cells/leukocytes) after subtracting the values of the DMSO and PU-FITC9 controls (used to control for non-specific and background binding). […]
All experimental blood sampling procedures were performed under the Institutional Review Board-approved protocols at Memorial Sloan Kettering Cancer Center. […] PBMC's are isolated on ficoll gradients, cells are counted and viability determined by trypan blue dye exclusion assay. […] Values are calculated as a ratio of the MFI of Tumor (EpCAM+CD45−CD14−): MFI of EpCAM−CD45+CD14− cells. […] This allows quantitation of the FITC fluorescence intensity in molecules of equivalent soluble fluorochrome (MESF units). […]

MOLM-13 cells = assay type: cell-based, human
HSP90 [3] = experiment: concomitant binding to HSP90 and streptavidin in live K562 cells; assay type: cell-based; conditions: for HSP90-streptavidin binding with K562 cells: live K562 cells; for binding in live K562 cells: 100 μM, 4 h
Source text: Having shown that some of the molecules bind concomitantly to HSP90 and streptavidin, we next investigated whether this can similarly be accomplished in live cells.

in vivo = conditions: 3×Tg AD, mouse, ip, 50 mg/kg, AUC 0 to 48 h
Source text: (§1) We next determined in the brain and plasma of 3×Tg AD mice, the HSP90 inhibitor levels associated with these pharmacodynamic effects (FIG. 43C).

[4] = mouse, in vivo
Source text: as §1

[5] = [124I]-PU-H71 PET in cancer patients, tumor exposure to PU-H71; assay type: in vivo, human; conditions: human blood circulation
HSP90 [6] = experiment: 131I-PU-H71 saturation binding in intact cancer cells; assay type: cell-based; conditions: MDA-MB-468 cells
Source text: The solutions were shaken in an orbital shaker and after 1 hr the cells were isolated and washed with ice cold Tris-buffered saline using a Brandel cell harvester. […] To calculate the percentage of HSP90, cellular HSP90 expression was quantified by using standard curves created of recombinant HSP90 purified from HeLa cells (Stressgen#ADI-SPP-770).

In the case of `O=c1[nH]c2ccccc2n1C1CCN(Cc2ccc(-c3nc4cc5[nH]cnc5cc4nc3-c3ccccc3)cc2)CC1` [AKTi], the “cells committed to undergo apoptosis” value (AML cell lines) is reported as “little to no effect”.

For `CC(C)N(CCCn1c(Sc2cc3c(cc2I)OCO3)nc2c(N)ncnc21)C(=S)Nc1ccc(-c2c3ccc(=O)cc-3oc3cc(O)ccc23)c(C(=O)O)c1` [PU-H71-FITC2], the “binding relative to normal lymphocytes” value (oncogenic HSP90 [1]) was “over 4 fold”, the “binding of circulating tumor cells relative to leukocytes (CD45+CD14−)” value (oncogenic HSP90 [2]) was “around 84 fold” and the “viability of MOLM-13 cells” value (MOLM-13 cells) was “decrease the viability of MOLM-13 cells”.

For `CC(C)N(CCCn1c(Sc2cc3c(cc2I)OCO3)nc2c(N)ncnc21)C(=O)CCCC[C@@H]1SC[C@@H]2NC(=O)N[C@@H]21` [PU-H71-biotin2], the “HSP90-streptavidin binding with K562 cells” value (“HSP90-streptavidin binding” below) (HSP90 [3]) was “No”.

In the case of `Nc1ncnc2c1nc(Sc1cc3c(cc1I)OCO3)n2CCCNC(=O)CCCC[C@@H]1SC[C@@H]2NC(=O)N[C@@H]21` [PU-H71-biotin3], the “HSP90-streptavidin binding” value (HSP90 [3]) is reported as “No”.

With `Nc1ncnc2c1nc(Sc1cc3c(cc1I)OCO3)n2CCCNC(=O)CCCCCNC(=O)CCCC[C@@H]1SC[C@@H]2NC(=O)N[C@@H]21` [PU-H71-biotin4] the “HSP90-streptavidin binding” value (HSP90 [3]) was “No”.

With `Nc1ncnc2c1nc(Sc1cc3c(cc1I)OCO3)n2CCCNC(=O)CCCCCNC(=O)CCCCCNC(=O)CCCC[C@@H]1SC[C@@H]2NC(=O)N[C@@H]21` [PU-H71-biotin5] the “binding in live K562 cells” value (HSP90 [3]) was “able to permeate the cell membrane” and the “HSP90-streptavidin binding” value (HSP90 [3]) was “Yes”.

With `Nc1ncnc2c1nc(Sc1cc3c(cc1I)OCO3)n2CCCNC(=O)CCOCCOCCOCCOCCNC(=O)CCCC[C@@H]1SC[C@@H]2NC(=O)N[C@@H]21` [PU-H71-biotin6] the “band at approximately 90 kDa in live K562 cells” value (HSP90 [3]; 0.5 μM) was “still shows a faint band”, the “binding in live K562 cells” value (HSP90 [3]) was “able to permeate the cell membrane” and the “HSP90-streptavidin binding” value (HSP90 [3]) was “Yes”.

In the case of `CC(C)N(CCCn1c(Sc2cc3c(cc2I)OCO3)nc2c(N)ncnc21)C(=O)CCCCCNC(=O)CCCCCNC(=O)CCCC[C@@H]1SC[C@@H]2NC(=O)N[C@@H]21` [PU-H71-biotin8], the “binding in live K562 cells” value (HSP90 [3]) is reported as “able to permeate the cell membrane” and the “HSP90-streptavidin binding” value (HSP90 [3]) is reported as “Yes”.

With `CC(C)N(CCCn1c(Sc2cc3c(cc2I)OCO3)nc2c(N)ncnc21)C(=O)CCOCCOCCOCCOCCNC(=O)CCCC[C@@H]1SC[C@@H]2NC(=O)N[C@@H]21` [PU-H71-biotin9] the “binding in live K562 cells” value (HSP90 [3]) was “able to permeate the cell membrane” and the “HSP90-streptavidin binding” value (HSP90 [3]) was “Yes”.

In the case of `Nc1ncnc2c1nc(Sc1cc3c(cc1I)OCO3)n2CCCNCCOCCOCCOCCNC(=O)CCCC[C@@H]1SC[C@@H]2NC(=O)N[C@@H]21` [PU-H71-biotin], the “HSP90-streptavidin binding” value (HSP90 [3]) is reported as “No”.

For `CC(C)N(CCCn1c(Sc2cc3c(cc2I)OCO3)nc2c(N)ncnc21)C(=O)CCCCCNC(=O)CCCC[C@@H]1SC[C@@H]2NC(=O)N[C@@H]21` [PU-H71-blotin7], the “HSP90-streptavidin binding” value (HSP90 [3]) was “No”.

With `CC(C)(C)CNCCn1c(Sc2cc3c(cc2I)OCO3)nc2c(N)ncnc21` [PU-HZ151] the AUC(0-t) (in vivo; exposure of the cortex) was 17.5 µM·h, the AUC(0-t) (in vivo; exposure of the plasma) was 7.1 µM·h and the “cortex AUC relative to plasma AUC” value [4] was 2.5 times.

For `CC(C)NCCCn1c(Sc2cc3c(cc2[124I])OCO3)nc2c(N)ncnc21` [[^124I]-PU-H71], the “blood t1/2, rapid clearance” value [5] was “≈ 20 min”, the “tumor uptake from ROI analysis” value (4 h) was 0.35±0.07 % ID/g and the “activity in ROI circumscribing the entire mouse” value (4 h PET) was 40-50 % of the administered activity. The “concentration in tumor relative to bone” value (4 h p.a.) was 9 fold, the “concentration in tumor relative to brain” value (4 h p.a.) was 40 fold and the “concentration in tumor relative to heart” value (4 h p.a.) was 10 fold. For the same compound, the “concentration in tumor relative to muscle” value (4 h p.a.) was 18 fold, the “concentration in tumor relative to spleen” value (4 h p.a.) was 6 fold and the “[Atumor] activity concentration in tumor” value (24 h) was about 0.14±0.05 % ID/g. For the same compound, the “tumor uptake from ROI analysis” value (24 h) was 0.083±0.02 % ID/g, the “tumor uptake from ROI analysis” value (48 h) was 0.058±0.02 % ID/g and the “tumor uptake from ROI analysis” value (72 h) was 0.031±0.01 % ID/g. For the same compound, the “tumor uptake from ROI analysis” value (100 h) was 0.024±0.008 % ID/g, the maximum thyroid activity (between 4 and 28 h, no potassium iodide) was < 0.4 % of the administered activity and the “tumor-to-blood activity concentration ratio” value (by ~12 h postinjection) was at least 10. For the same compound, the “time by which cleared from MDA-MB-468 tumors” value (post-administration) was at most 150 h.

For `CC(C)NCCCn1c(Sc2cc3c(cc2[131I])OCO3)nc2c(N)ncnc21` [^131I-PU-H71], the “available cellular binding sites bound per cell” value (HSP90 [6]) was ≤ 5.5×10^6 and the “fraction of total cellular HSP90 bound” value (HSP90 [6]) was 26.6-33.5%.
